Reference: patent publication US20230002334A1, “TRPM8 MODULATORS” (Givaudan SA, priority 2019, published 2023)
Structures can show the parent of a compound that is named as a salt.

target: T1, hTRPM8 (Homo sapiens, UniProt Q7Z2W7); assay: Assay on TRPM8 modulators: calcium imaging (Fluo-4, Flexstation) in HEK293 cell line stably expressing hTRPM8; assay type: cell-based; conditions: HEK293 cells stably expressing hTRPM8, calcium influx, sigmoidal dose-response fit; read-out: EC50
T1 construct: expressed in transfected cells
T1 sequence (Q7Z2W7 whole entry): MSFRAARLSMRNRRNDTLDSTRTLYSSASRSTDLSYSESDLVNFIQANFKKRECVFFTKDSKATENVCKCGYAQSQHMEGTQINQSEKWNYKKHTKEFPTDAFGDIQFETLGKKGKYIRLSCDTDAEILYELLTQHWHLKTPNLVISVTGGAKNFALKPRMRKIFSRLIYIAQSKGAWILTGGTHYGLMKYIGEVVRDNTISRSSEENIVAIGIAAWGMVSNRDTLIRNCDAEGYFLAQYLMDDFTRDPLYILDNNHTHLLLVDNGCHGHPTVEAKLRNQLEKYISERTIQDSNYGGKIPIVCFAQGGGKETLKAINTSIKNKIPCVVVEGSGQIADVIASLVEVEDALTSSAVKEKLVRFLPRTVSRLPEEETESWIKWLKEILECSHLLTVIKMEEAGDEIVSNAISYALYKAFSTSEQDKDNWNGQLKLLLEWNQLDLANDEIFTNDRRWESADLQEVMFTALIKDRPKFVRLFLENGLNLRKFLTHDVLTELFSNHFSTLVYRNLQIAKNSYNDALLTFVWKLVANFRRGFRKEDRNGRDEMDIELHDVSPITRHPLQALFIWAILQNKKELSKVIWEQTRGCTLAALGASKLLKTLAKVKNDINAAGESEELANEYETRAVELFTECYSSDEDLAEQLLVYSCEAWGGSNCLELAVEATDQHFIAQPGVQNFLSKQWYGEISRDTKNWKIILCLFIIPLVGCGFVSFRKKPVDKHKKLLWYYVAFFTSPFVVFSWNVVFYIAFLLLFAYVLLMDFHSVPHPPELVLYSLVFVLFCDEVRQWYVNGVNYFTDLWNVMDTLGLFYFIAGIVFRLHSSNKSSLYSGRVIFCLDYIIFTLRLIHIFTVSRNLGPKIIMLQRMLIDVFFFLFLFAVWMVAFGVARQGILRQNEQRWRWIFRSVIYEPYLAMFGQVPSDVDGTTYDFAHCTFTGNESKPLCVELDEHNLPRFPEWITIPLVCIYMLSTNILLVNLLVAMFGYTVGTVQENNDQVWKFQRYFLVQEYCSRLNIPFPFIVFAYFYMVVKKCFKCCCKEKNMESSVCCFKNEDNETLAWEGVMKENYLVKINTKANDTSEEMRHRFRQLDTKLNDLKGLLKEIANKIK
Outline: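 Calcium influx monitored by Fluo-4 (2.7 μM with […] probenecid, 1 h 37 °C loading) in HEK293 cells stably expressing hTRPM8, in HEPES buffer pH 7.4 with 2 mM CaCl2. Fluorescence read 15 s before and 105 s after adding serial compound dilutions. Maximal activation relative to solvent and 31.6 μM menthol; EC50 from sigmoidal fit.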

EC50 | SMILES
0.05 to 0.3 µM | Cc1ccc(C#N)cc1[C@@]1(C)C[C@@H]2[C@@H]([C@@H](C)C1)N(C(C)C)OC2(C)C (racemic) [Compound 126, rac-3-((3aR,5R,7S,7aR)-1-isopropyl-3,3,5,7-tetramethyloctahydrobenzo[c]isoxazol-5-yl)-4-methylbenzonitrile]
< 0.05 µM | CC(C)N1OC(C)(C)[C@@H]2C[C@](C)(c3cccc(C#N)c3)C[C@H](C)[C@H]21 (racemic) [Compound 127, rac-3-((3aR,5R,7S,7aR)-1-isopropyl-3,3,5,7-tetramethyloctahydrobenzo[c]isoxazol-5-yl)benzonitrile]
< 0.05 µM | COc1ccc(C#N)cc1[C@H]1C[C@@H]2[C@@H]([C@@H](C)C1)N(C(C)C)OC2(C)C (racemic) [Compound 128, rac-3-((3aR,5R,7S,7aR)-1-isopropyl-3,3,7-trimethyloctahydrobenzo[c]isoxazol-5-yl)-4-methoxybenzonitrile]
< 0.05 µM | C[C@H]1C[C@@](C)(c2cc(Cl)cc(C#N)c2)C[C@@H]2[C@@H]1N(C)OC2(C)C (racemic) [Compound 129, rac-3-chloro-5-((3aR,5R,7S,7aR)-1,3,3,5,7-pentamethyloctahydrobenzo[c]isoxazol-5-yl)benzonitrile]
0.05 to 0.3 µM | Cc1cc(C#N)ccc1[C@@]1(C)C[C@@H]2[C@@H]([C@@H](C)C1)N(C)OC2(C)C (racemic) [Compound 130, rac-3-methyl-4-((3aR,5R,7S,7aR)-1,3,3,5,7-pentamethyloctahydrobenzo[c]isoxazol-5-yl)benzonitrile]
0.05 to 0.3 µM | C[C@H]1C[C@@](C)(c2ccc(C#N)cc2)C[C@@H]2[C@@H]1N(C)OC2(C)C (racemic) [Compound 131, rac-4-((3aR,5R,7S,7aR)-1,3,3,5,7-pentamethyloctahydrobenzo[c]isoxazol-5-yl)benzonitrile]
0.3 to 1 µM | COc1ccc(C#N)cc1[C@]1(C)C[C@@H](C)[C@@H]2[C@@H](C1)C(C)(C)ON2C (racemic) [Compound 132, rac-4-methoxy-3-((3aR,5R,7R,7aR)-1,3,3,5,7-pentamethyloctahydrobenzo[c]isoxazol-5-yl)benzonitrile]
< 0.05 µM | COc1ccc(C#N)cc1[C@@]1(C)C[C@@H]2[C@@H]([C@@H](C)C1)N(C)OC2(C)C (racemic) [Compound 133, rac-4-methoxy-3-((3aR,5R,7S,7aR)-1,3,3,5,7-pentamethyloctahydrobenzo[c]isoxazol-5-yl)benzonitrile]
0.05 to 0.3 µM | Cc1ccc(C#N)c([C@@]2(C)C[C@@H]3[C@@H]([C@@H](C)C2)N(C)OC3(C)C)c1 (racemic) [Compound 134, rac-4-methyl-2-((3aR,5R,7S,7aR)-1,3,3,5,7-pentamethyloctahydrobenzo[c]isoxazol-5-yl)benzonitrile]
0.05 to 0.3 µM | Cc1ccc(C#N)cc1[C@H]1C[C@@H]2[C@@H]([C@@H](C)C1)N(C)OC2(C)C (racemic) [Compound 136, rac-4-methyl-3-((3aR,5R,7S,7aR)-1,3,3,7-tetramethyloctahydrobenzo[c]isoxazol-5-yl)benzonitrile]
0.05 to 0.3 µM | COC(=O)c1ccc(C)c([C@@]2(C)C[C@@H]3[C@@H]([C@@H](C)C2)N(C)OC3(C)C)c1 (racemic) [Compound 137, rac-methyl 4-methyl-3-((3aR,5R,7S,7aR)-1,3,3,5,7-pentamethyloctahydrobenzo[c]isoxazol-5-yl)benzoate]
< 0.05 µM | Cc1ccc(C#N)cc1[C@@]1(C)C[C@@H]2[C@@H]([C@@H](C)C1)N(C)OC2(C)C (stereo in doubt) [Compound 138, rel-4-methyl-3-((3aR,5R,7S,7aR)-1,3,3,5,7-pentamethyloctahydrobenzo[c]isoxazol-5-yl)benzonitrile]
0.05 to 0.3 µM | Cc1ccc(C#N)cc1[C@@]1(C)C[C@@H](C)[C@H]2[C@H](C1)C(C)(C)ON2C (stereo in doubt) [Compound 139, rel-4-methyl-3-((3aS,5S,7R,7aS)-1,3,3,5,7-pentamethyloctahydrobenzo[c]isoxazol-5-yl)benzonitrile]

More lines, now with the values behind:

SMILES | EC50
C[C@H]1C[C@@](C)(c2ccoc2)C[C@@H]2[C@@H]1N(C)OC2(C)C (racemic) [Compound 110, rac-(3aR,5R,7S,7aR)-5-(furan-3-yl)-1,3,3,5,7-pentamethyloctahydrobenzo[c]isoxazole] | 0.3 to 1 µM
CC(C)CC[C@@]1(C)C[C@@H]2[C@@H]([C@@H](C)C1)N(C(C)C)OC2(C)C (racemic) [Compound 112, rac-(3aR,5R,S,7aR)-5-isopentyl-1-isopropyl-3,3,5,7-tetramethyloctahydrobenzo[c]isoxazole] | 0.05 to 0.3 µM
CC(C)=CC[C@]1(C)CC[C@@H]2[C@@H](C1)C(C)(C)ON2C (racemic) [Compound 113, rac-(3aR,5S,7aR)-1,3,3,5-tetramethyl-5-(3-methylbut-2-en-1-yl)octahydrobenzo[c]isoxazole] | 0.3 to 1 µM
CC1CC(C)[C@@H]2[C@@H](C1C)C(C)(C)ON2C (mixture of isomers) [Compound 114, rac-(3aR,7aR)-1,3,3,4,5,7-hexamethyloctahydrobenzo[c]isoxazole] | 1 to 35 µM
CN1OC(C)(C)[C@@H]2CCC(c3ccccc3)C[C@H]21 (mixture of isomers) [Compound 115, rac-(3aR,7aR)-1,3,3-trimethyl-6-phenyloctahydrobenzo[c]isoxazole] | 1 to 35 µM
CCC1CC(CC)[C@@H]2[C@@H](C1)C(C)(C)ON2CC (mixture of isomers) [Compound 116, rac-(3aR,7aR)-1,5,7-triethyl-3,3-dimethyloctahydrobenzo[c]isoxazole] | 1 to 35 µM
CC1CC(C)[C@H]2[C@@H](C1C)C(C)(C)ON2C (mixture of isomers) [Compound 117, rac-(3aR,7aS)-1,3,3,4,5,7-hexamethyloctahydrobenzo[c]isoxazole] | 1 to 35 µM
CCC1(CC)C[C@@H]2[C@@H]([C@@H](C)C1)N(C)OC2(C)C (racemic) [Compound 118, rac-(3aR,7S,7aR)-5,5-diethyl-1,3,3,7-tetramethyloctahydrobenzo[c]isoxazole] | 1 to 35 µM
C[C@H]1C[C@@](C)(c2ccc(F)cc2)C[C@H]2[C@H]1N(C)OC2(C)C (racemic) [Compound 119, rac-(3aS,5R,7S,7aS)-5-(4-fluorophenyl)-1,3,3,5,7-pentamethyloctahydrobenzo[c]isoxazole] | 0.3 to 1 µM
C[C@H]1C[C@@](C)(c2ccc(Cl)c(C#N)c2)C[C@@H]2[C@@H]1N(C)OC2(C)C (racemic) [Compound 121, rac-2-chloro-5-((3aR,5R,7S,7aR)-1,3,3,5,7-pentamethyloctahydrobenzo[c]isoxazol-5-yl)benzonitrile] | < 0.05 µM
C[C@@H]1C[C@@](C)(c2ccc(Cl)c(C#N)c2)C[C@H]2[C@H]1N(C)OC2(C)C (racemic) [Compound 122, rac-2-chloro-5-((3aS,5R,7R,7aS)-1,3,3,5,7-pentamethyloctahydrobenzo[c]isoxazol-5-yl)benzonitrile] | 1 to 35 µM
Cc1ccc([C@@]2(C)C[C@@H]3[C@@H]([C@@H](C)C2)N(C)OC3(C)C)cc1C#N (racemic) [Compound 123, rac-2-methyl-5-((3aR,5R,7S,7aR)-1,3,3,5,7-pentamethyloctahydrobenzo[c]isoxazol-5-yl)benzonitrile] | 0.05 to 0.3 µM
CCN1OC(C)(C)[C@@H]2C[C@](C)(c3cc(C#N)ccc3C)C[C@H](C)[C@H]21 (racemic) [Compound 125, rac-3-((3aR,5R,7S,7aR)-1-ethyl-3,3,5,7-tetramethyloctahydrobenzo[c]isoxazol-5-yl)-4-methylbenzonitrile] | < 0.05 µM
Cc1ccncc1C1(C)CC(C)C2C(C1)C(C)(C)ON2C (centres unmarked) [Compound 2, 1,3,3,5,7-pentamethyl-5-(4-methylpyridin-3-yl)octahydrobenzo[c]isoxazole] | 0.3 to 1 µM
CC1CC(C)(c2cccnc2)CC2C1N(C)OC2(C)C (centres unmarked) [Compound 3, 1,3,3,5,7-pentamethyl-5-(pyridin-3-yl)octahydrobenzo[c]isoxazole] | 1 to 35 µM
CC1CC(C)C2C(C1)C(C)(C)ON2C (centres unmarked) [Compound 5, 1,3,3,5,7-pentamethyloctahydrobenzo[c]isoxazole hydrochloride] | 1 to 35 µM
CC1CCC2C(C1)N(C)OC2(C)C (centres unmarked) [Compound 6, 1,3,3,6-tetramethyloctahydrobenzo[c]isoxazole] | 1 to 35 µM
CC1CC(C)C2C(C1)C1(CCCC1)ON2C (centres unmarked) [Compound 8, 1,5,7-trimethylhexahydro-1H-spiro[benzo[c]isoxazole-3,1′-cyclopentane]] | 1 to 35 µM
CC(C)=CCC1(C)CC(C)C2C(C1)C(C)(C)ON2C(C)C (centres unmarked) [Compound 10, 1-isopropyl-3,3,5,7-tetramethyl-5-(3-methylbut-2-en-1-yl)octahydrobenzo[c]isoxazole] | 0.3 to 1 µM
CC1CC(C)C2C(C1)C(C)(C)ON2C(C)C (centres unmarked) [Compound 11, 1-isopropyl-3,3,5,7-tetramethyloctahydrobenzo[c]isoxazol-1-ium chloride] | 0.3 to 1 µM
CC1CC(C)C2C(C1)C1(CCCC1)ON2C(C)C (centres unmarked) [Compound 13, 1-isopropyl-5,7-dimethylhexahydro-1H-spiro[benzo[c]isoxazole-3,1-cyclopentane]] | 1 to 35 µM
CC1CC(C)(c2ccccc2C#N)CC2C1N(C)OC2(C)C (centres unmarked) [Compound 14, 2-(1,3,3,5,7-pentamethyloctahydrobenzo[c]isoxazol-5-yl)benzonitrile] | 0.05 to 0.3 µM
Cc1c(C#N)cccc1C1(C)CC(C)C2C(C1)C(C)(C)ON2C (centres unmarked) [Compound 15, 2-methyl-3-(1,3,3,5,7-pentamethyloctahydrobenzo[c]isoxazol-5-yl)benzonitrile] | 0.3 to 1 µM
COc1ccc(C2(C)CC(C)C3C(C2)C(C)(C)ON3C)c(OC)c1 (centres unmarked) [Compound 16, 5-(2,4-dimethoxyphenyl)-1,3,3,5,7-pentamethyloctahydrobenzo[c]isoxazole] | 0.3 to 1 µM
COc1ccc(OC)c(C2(C)CC(C)C3C(C2)C(C)(C)ON3C)c1 (centres unmarked) [Compound 17, 5-(2,5-dimethoxyphenyl)-1,3,3,5,7-pentamethyloctahydrobenzo[c]isoxazole] | 0.05 to 0.3 µM
